Experimental data as given in ChEMBL document CHEMBL1201862, “PubChem BioAssay data set” (2004).
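These data come from cells grown in 96-well plates and exposed to compound for 48 hours at five concentrations. The concentration for 50% growth inhibition is given as GI50.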 Active and inactive are the calls of the source. Cut-off read from the data, not from the text of the source: active = GI50 up to about 1.1 µM and inactive = higher.

Experiments:
Assay in all cases: DTP human tumour cell line panel, 48 h
HOP-92 = test system: HOP-92
IGROV-1 = test system: IGROV-1
SK-MEL-2 = test system: SK-MEL-2
A549 = test system: A549
MOLT-4 = test system: MOLT-4
MDA-N = test system: MDA-N
HCT-15 = test system: HCT-15
RPMI-8226 = test system: RPMI-8226
SR = test system: SR
CCRF-CEM = test system: CCRF-CEM
OVCAR-5 = test system: OVCAR-5
NCI/ADR-RES = test system: NCI/ADR-RES
SK-MEL-5 = test system: SK-MEL-5
NCI-H460 = test system: NCI-H460
OVCAR-3 = test system: OVCAR-3
OVCAR-4 = test system: OVCAR-4
UACC-257 = test system: UACC-257
Malme-3M = test system: Malme-3M
HCT-116 = test system: HCT-116

Structure (SMILES)	GI50 (HOP-92)	GI50 (IGROV-1)	GI50 (SK-MEL-2)	GI50 (A549)	GI50 (MOLT-4)	GI50 (MDA-N)	GI50 (HCT-15)	GI50 (RPMI-8226)	GI50 (SR)	GI50 (CCRF-CEM)	GI50 (OVCAR-5)	GI50 (NCI/ADR-RES)	GI50 (SK-MEL-5)	GI50 (NCI-H460)	GI50 (OVCAR-3)	GI50 (OVCAR-4)	GI50 (UACC-257)	GI50 (Malme-3M)	GI50 (HCT-116)
CCCN(CCC)C1CCc2c(ccc3cc[nH]c23)C1 (configuration not stated)	27.7 µM (inactive)	62.7 µM (inactive)	> 100 µM (inactive)	> 100 µM (inactive)	25.2 µM (inactive)	> 100 µM (inactive)	48.1 µM	41 µM (inactive)	22.9 µM (inactive)	26.3 µM (inactive)	> 100 µM (inactive)	> 100 µM (inactive)	20.7 µM (inactive)	72.3 µM (inactive)	61.4 µM (inactive)	> 100 µM (inactive)	26.7 µM (inactive)	58.1 µM (inactive)	66.8 µM (inactive)
COc1ccc2nc3cc(Cl)ccc3c(NCCCCCC(=O)NC(COc3cnc4c(ccc5cccnc54)c3)COc3cnc4c(ccc5cccnc54)c3)c2c1	> 100 µM (inactive)	10 µM (inactive)	14.1 µM (inactive)	29.1 µM (inactive)	1.65 µM (inactive)	19 µM (inactive)	> 100 µM	5.65 µM (inactive)	2.76 µM (inactive)	1.99 µM (inactive)	24.1 µM (inactive)	> 100 µM (inactive)	–	5.47 µM (inactive)	4.02 µM (inactive)	7.28 µM (inactive)	8.93 µM (inactive)	34.9 µM (inactive)	3.94 µM (inactive)
COc1ccc2[nH]c3c(c2c1)CCc1c(OC)cccc1-3	> 100 µM (inactive)	> 100 µM (inactive)	> 100 µM (inactive)	> 100 µM (inactive)	29.9 µM (inactive)	> 100 µM (inactive)	> 100 µM	51.9 µM (inactive)	> 100 µM (inactive)	52.2 µM (inactive)	> 100 µM (inactive)	> 100 µM (inactive)	> 100 µM (inactive)	> 100 µM (inactive)	> 100 µM (inactive)	40.3 µM (inactive)	> 100 µM (inactive)	75.2 µM (inactive)	> 100 µM (inactive)
CNc1ncnc2c1cnn2COCC(O)CO (configuration not stated)	> 100 µM (inactive)	> 100 µM (inactive)	> 100 µM (inactive)	> 100 µM (inactive)	> 100 µM (inactive)	> 100 µM (inactive)	> 100 µM	> 100 µM (inactive)	> 100 µM (inactive)	> 100 µM (inactive)	> 100 µM (inactive)	> 100 µM (inactive)	> 100 µM (inactive)	> 100 µM (inactive)	> 100 µM (inactive)	> 100 µM (inactive)	> 100 µM (inactive)	> 100 µM (inactive)	> 100 µM (inactive)
CC1(C)CC(=O)c2c(N)n[nH]c2C1	> 100 µM (inactive)	> 100 µM (inactive)	> 100 µM (inactive)	> 100 µM (inactive)	> 100 µM (inactive)	> 100 µM (inactive)	–	> 100 µM (inactive)	> 100 µM (inactive)	> 100 µM (inactive)	> 100 µM (inactive)	> 100 µM (inactive)	> 100 µM (inactive)	> 100 µM (inactive)	> 100 µM (inactive)	> 100 µM (inactive)	> 100 µM (inactive)	> 100 µM (inactive)	> 100 µM (inactive)
CC(=O)C1(c2ccccc2)CCN(Cn2sc3nc(C)cc(C)c3c2=O)CC1	59.4 µM (inactive)	> 100 µM (inactive)	44 µM (inactive)	64.7 µM (inactive)	27.7 µM (inactive)	19.8 µM (inactive)	26.5 µM	56.9 µM (inactive)	32.1 µM (inactive)	10.5 µM (inactive)	19.5 µM (inactive)	32 µM (inactive)	30.1 µM (inactive)	17.6 µM (inactive)	37.5 µM (inactive)	21.9 µM (inactive)	–	20.3 µM (inactive)	23.1 µM (inactive)
C=C1CC[C@@]2(OC1)OC1C[C@H]3[C@@H]4CC=C5C[C@@H](O)CC(OC6OCC(OC(=O)[C@@H](O)[C@@H](C)CC)C(OC(C)=O)C6OC6OC(C)C(O)C(O)C6O)[C@]5(C)[C@H]4CC[C@]3(C)C1[C@@H]2C (some centres not stated)	3.3 µM (inactive)	2.56 µM (inactive)	1.57 µM (inactive)	2.21 µM (inactive)	1.7 µM (inactive)	1.92 µM (inactive)	1.91 µM	2.09 µM (inactive)	2.07 µM (inactive)	1.53 µM (inactive)	2.04 µM (inactive)	2.32 µM (inactive)	1.97 µM (inactive)	1.72 µM (inactive)	1.85 µM (inactive)	2.81 µM (inactive)	2.21 µM (inactive)	3.84 µM (inactive)	1.65 µM (inactive)
CO/N=C(\C(=O)N(C)n1cnnc1)c1csc(NC(c2ccccc2)(c2ccccc2)c2ccccc2)n1	> 10 µM (inactive)	> 10 µM (inactive)	> 10 µM (inactive)	> 10 µM (inactive)	> 10 µM (inactive)	> 10 µM (inactive)	> 10 µM	> 10 µM (inactive)	> 10 µM (inactive)	> 10 µM (inactive)	> 10 µM (inactive)	> 10 µM (inactive)	> 10 µM (inactive)	> 10 µM (inactive)	> 10 µM (inactive)	> 10 µM (inactive)	> 10 µM (inactive)	> 10 µM (inactive)	> 10 µM (inactive)
CCOc1ccc(N2C(=O)NC3(c4ccccc4)N(C)C(=O)N(C)C23c2ccccc2)cc1 (configuration not stated)	> 100 µM (inactive)	> 100 µM (inactive)	> 100 µM (inactive)	56.8 µM (inactive)	30.4 µM (inactive)	62.4 µM (inactive)	–	57.1 µM (inactive)	> 100 µM (inactive)	> 100 µM (inactive)	> 100 µM (inactive)	63.1 µM (inactive)	68.9 µM (inactive)	–	> 100 µM (inactive)	–	> 100 µM (inactive)	> 100 µM (inactive)	78 µM (inactive)
O=C(Nc1cc2c(=O)[nH]c3ccccc3c2oc1=O)c1cnccn1	> 100 µM (inactive)	> 100 µM (inactive)	> 100 µM (inactive)	> 100 µM (inactive)	> 100 µM (inactive)	> 100 µM (inactive)	> 100 µM	–	> 100 µM (inactive)	> 100 µM (inactive)	> 100 µM (inactive)	> 100 µM (inactive)	> 100 µM (inactive)	> 100 µM (inactive)	> 100 µM (inactive)	> 100 µM (inactive)	> 100 µM (inactive)	> 100 µM (inactive)	> 100 µM (inactive)
Cc1ccc2c(O)cc(-c3ccc(C)s3)nc2n1	5.21 µM (inactive)	0.44 µM (active)	59.3 µM (inactive)	0.531 µM (active)	0.624 µM (active)	0.0213 µM (active)	0.0863 µM	0.248 µM (active)	0.0893 µM (active)	0.276 µM (active)	1.91 µM (inactive)	0.129 µM (active)	0.139 µM (active)	0.456 µM (active)	0.34 µM (active)	12.7 µM (inactive)	16.6 µM (inactive)	0.94 µM (active)	0.295 µM (active)
